18 compounds from ChEMBL document CHEMBL1944527, “Structure-based library design and the discovery of a potent and selective mast cell β-tryptase inhibitor as an oral therapeutic agent” (Bioorg Med Chem Lett, 2012) can be followed below.

As a reminder, the Ki is the dissociation constant of the complex between target and ligand, obtained from inhibition or displacement. Usually IC50 stands for the concentration at which inhibition is half-maximal. A low value points to greater potency. The term bioavailability denotes the share of a dose that reaches the circulation, judged against a reference dose that is usually intravenous. Read a high bioavailability as much systemic uptake. As a reminder, the Cmax is the peak of the concentration-time curve. What is called Tmax is the time at which the peak concentration occurs. As usually defined, the half-life is how long it takes for the measured level to halve. A low value points to fast loss.

A value given as a limit tells only on which side of the number the result lay.

A short description of series [1]: Inhibition of human recombinant beta tryptase using S-2366 as substrate after 30 mins by spectrophotometry.
Series [2] can be described thus: Inhibition of elastase.
For the next series, the target named is T1, Chymase (Homo sapiens, UniProt P23946).
T1 sequence (P23946 whole entry): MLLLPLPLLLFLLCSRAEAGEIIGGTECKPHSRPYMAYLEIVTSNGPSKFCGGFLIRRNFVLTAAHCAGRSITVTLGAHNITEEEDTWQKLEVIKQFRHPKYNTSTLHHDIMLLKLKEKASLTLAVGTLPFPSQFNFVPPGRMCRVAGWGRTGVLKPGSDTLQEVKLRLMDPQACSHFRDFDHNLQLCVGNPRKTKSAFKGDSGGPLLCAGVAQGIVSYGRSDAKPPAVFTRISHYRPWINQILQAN
Kind of series: Inhibition of chymase.

A short description of series [3]: Oral bioavailability in rat at 10 mg/kg. Format: ADME, organism-based. Particulars: in vivo.
Series [4] is described as follows: Cmax in rat at 10 mg/kg, po. To be noted: in vivo. The series is classed as ADME, organism-based. The arrangement: dose 10 mg/kg, route oral.
A short description of series [5]: Tmax in rat at 10 mg/kg, po. Format: ADME, organism-based. Particulars: in vivo. On the set-up: dose 10 mg/kg, route oral.
The target in the next series is Coagulation factor X (Homo sapiens, UniProt P00742). Kind of series: Inhibition of Coagulation factor 10a.
A further series concerns the target Prothrombin (Homo sapiens, UniProt P00734). Kind of series: Inhibition of thrombin.
Series [6] in a line: Inhibition of trypsin.
Series [7] in a line: Half life in rat plasma at 2 mg/kg, iv.
A short description of series [8]: Plasma clearance in rat at 2 mg/kg, iv and 10 mg/kg, po.
The nature of series [9]: Volume of distribution at steady state in rat at 2 mg/kg, iv and 10 mg/kg, po. To be noted: in vivo, read-out: Vdss.

Coagulation factor X, sequence (P00742 41-179 limits assumed): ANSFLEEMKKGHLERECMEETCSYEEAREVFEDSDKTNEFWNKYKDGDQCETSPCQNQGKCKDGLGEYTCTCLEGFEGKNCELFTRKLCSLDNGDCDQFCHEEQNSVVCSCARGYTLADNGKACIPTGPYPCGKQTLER
Coagulation factor X, sequence (P00742 235-488 limits assumed): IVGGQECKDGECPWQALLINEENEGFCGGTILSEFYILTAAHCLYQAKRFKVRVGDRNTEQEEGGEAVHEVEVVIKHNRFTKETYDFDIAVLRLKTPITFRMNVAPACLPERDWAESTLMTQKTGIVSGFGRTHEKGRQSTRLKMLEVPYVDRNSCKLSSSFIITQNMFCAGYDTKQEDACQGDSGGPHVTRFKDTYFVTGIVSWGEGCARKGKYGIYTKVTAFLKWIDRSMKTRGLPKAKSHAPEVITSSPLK

`NCc1cccc(C2CCN(C(=O)c3ccc(C#Cc4ccc(Cl)cc4)o3)CC2)c1`: the Ki in series [1] was determined as 166 nM.

Turning to `NCc1cccc(C2CCN(C(=O)c3ccc(C#Cc4ccccc4)o3)CC2)c1.O=C(O)C(F)(F)F`, the IC50 (in [2]; against Chymase; against Coagulation factor X; against Prothrombin; in series [6]) was over 100000 nM in each case. This compound also displayed a bioavailability in series [3] of 32%. The same compound had a Cmax in [4] of 68 ng/mL. In addition, the time of peak concentration (Tmax) in series [5] is 3.3 h. In series [1], the Ki was 31 nM. Also, in [7], the half-life is 2.5 h. Besides, the clearance in [8] is 85 mL/min/kg. Moreover, in series [9], the Vd was found to be 14.1 L/kg.

With `NCc1cccc(C2CCN(C(=O)c3ccc(C#Cc4ccccc4F)o3)CC2)c1.O=C(O)C(F)(F)F`, the half-inhibitory concentration (IC50) (in [2]; against Chymase; on Coagulation factor X; against Prothrombin; in [6]) was over 100000 nM throughout. The same compound returned a bioavailability in [3] of 77%. The compound further had a Cmax in [4] of 121 ng/mL. Also, the Tmax in series [5] was determined as 3.7 h. This compound also showed a half-life in series [7] of 2.2 h. The compound also had a clearance in series [8] of 140 mL/min/kg. In addition, the Vd in [9] turned out to be 18.5 L/kg.

As for `Cc1ccc(C#Cc2ccc(C(=O)N3CCC(c4cccc(CN)c4)CC3)o2)cc1`, the Ki in series [1] came out at 112 nM.

For the compound `Cc1ccccc1C#Cc1ccc(C(=O)N2CCC(c3cccc(CN)c3)CC2)o1`, the Ki in series [1] came to 324 nM.

As for `NCc1cccc(C2CCN(C(=O)c3ccc(C#Cc4ccc(F)c(F)c4)o3)CC2)c1`, in [1], the Ki amounted to 742 nM.

In the case of `NCc1cccc(C2CCN(C(=O)c3ccc(C#Cc4ccc(F)cc4F)o3)CC2)c1`, the Ki in series [1] worked out at 67 nM.

On to `NCc1cccc(C2CCN(C(=O)c3ccc(C#Cc4ccc(F)cc4)o3)CC2)c1`, for which the inhibition constant (Ki) in [1] was 279 nM.

In the case of `NCc1cccc(C2CCN(C(=O)c3ccc(C#Cc4cccc(F)c4)o3)CC2)c1`, the Ki in [1] is 98 nM.

For the compound `NCc1cccc(C2CCN(C(=O)c3ccc(C#Cc4ccccc4Cl)o3)CC2)c1`, the Ki in series [1] is 22 nM.

On to `NCc1cccc(C2CCN(C(=O)c3ccc(C#Cc4ccc(Cl)nc4)o3)CC2)c1`, for which the Ki in [1] was 101 nM.

For `NCc1cccc(C2CCN(C(=O)c3ccc(C#Cc4cccs4)o3)CC2)c1`, the Ki in [1] was found to be 236 nM.

Turning to `NCc1cccc(C2CCN(C(=O)c3ccc(C#Cc4ccsc4)o3)CC2)c1`, the inhibitory constant (Ki) in [1] was found to be 327 nM.

Regarding `NCc1cccc(C2CCN(C(=O)c3ccc(C#Cc4cccnc4)o3)CC2)c1`, the inhibition constant (Ki) in series [1] is 84 nM.

Turning to `NCc1cccc(C2CCN(C(=O)c3ccc(C#Cc4ccccn4)o3)CC2)c1.O=C(O)C(F)(F)F`, the 50% inhibitory concentration (IC50) is over 100000 nM in series [2]; over 100000 nM against Chymase; 9000 nM against Coagulation factor X; over 100000 nM against Prothrombin; over 100000 nM in [6]. In series [3], this compound had a bioavailability of 0%. In addition, the Ki in series [1] came to 5 nM. The compound also gave a half-life in series [7] of 0.46 h. The same compound showed a clearance in series [8] of 310 mL/min/kg.

For the compound `NCc1cccc(C2CCN(C(=O)c3ccc(C#Cc4ncccc4F)o3)CC2)c1`, the Ki in series [1] was determined as 27 nM.

For `NCc1cccc(C2CCN(C(=O)c3ccc(C#Cc4cnccn4)o3)CC2)c1`, in series [1], the Ki came out at 2770 nM.

With `NCc1cccc(C2CCN(C(=O)c3ccc(C#Cc4ncccn4)o3)CC2)c1`, the Ki in series [1] was found to be 157 nM.
